Measured values: patent US20250332183A1, “COMPOSITIONS AND METHODS FOR THE STIMULATION OF INTERMEDIATE MACROPHAGES AND TREATMENTS THEREWITH” (priority 2024, published 2025)

Columns and labels:
[1] = test system: TLR4 and pathway-related cytokines, apoptosis, proliferation and permeability markers in lung tissue homogenates; experiment: Immunoblot and RT-PCR of lamb lung tissue homogenates; type: in vivo
Protocol: For molecular analyses, the right caudal lobe was cut into 1 cm^3 pieces (˜1 g each), again using systematic, uniform, random sampling methods. The lung pieces were from peripheral tissue devoid of visceral pleura and central airways, vessels, and connective tissue. The pieces were snap-frozen in liquid nitrogen and stored at −80° C. Homogenates of frozen tissue pieces were used for quantitative real-time RT-PCR and immunoblot analyses. Expression of mRNA was normalized to GAPDH. For immunoblot analysis, cleaved caspase 3 was used (EnzoADI-AAP-113, Enzo Life Sciences, Inc., Farmingdale, NY), PCNA (ab2426, Abcam, Cambridge, MA), and VEGF-R2 (sc-393163, Santa Cruz Biotechnology, Dallas, TX) proteins. Positive controls for immunoblot were the respective native proteins. Protein abundance was normalized, using Memcode (P124585, Fisher Scientific, Pittsburgh, PA).

[2] = test system: cord blood mononuclear cells (CBMCs); experiment: LPS tolerance / pretreatment in CBMCs; type: cell-based, human
Protocol: Cells were dosed with AVR-48 [100 μM], LPS [50 ng/mL], and in combination show (FIG. 16A). […] N=3, One-way ANOVA was used for analysis. […] N=3, Two-way ANOVA.
N=3 *p<0.05, **p<0.01, ***p<0.001. One-way ANOVA and t tests.

[3] = test system: cord blood mononuclear cells (CBMCs); experiment: Macrophage lineage in CBMCs; type: cell-based, human; conditions: 100 μM and LPS 50 ng/mL, 72 h (3d), HLA-DRlow/CD163high
Source text: N=3, *P<0.05, Two-way ANOVA was used for statistical analysis.

[4] = late-stage study, FPT lambs vs FPT vehicle

CC(=O)NC1C(Oc2ccc([N+](=O)[O-])cc2)OC(CO)C(O)C1O (stereo not shown) [AVR-48]
P53 in lung ([1]; 90-day study, vs FPT vehicle lamb lungs): higher | cleaved caspase-3 protein levels in lung ([1]; DOL10, PT lambs vs vehicle): significantly lower level | mRNA levels for p53, caspase-3, c-Myc, and TGF-β in lung ([1]; DOL10, PT lambs vs vehicle): No significant difference | relative mRNA levels of TLR4 and cytokines in lung ([1]; PT lambs vs control, FPT and term lambs): No differences were found | protein concentration of TLR4 and pathway-related cytokines in lung tissue ([1]; early-stage study): no differences were detected | VEGF-A protein level in lung ([1]; early-stage study, 10d, PT group vs vehicle): significant decrease | TLR4 protein concentration (relative protein level) in lung tissue ([1]; late-stage study (DOL90), FPT AVR-48 lambs): 0.007±0.004 | TLR4 protein concentration in lung tissue vs vehicle ([1]; late-stage study (DOL90), FPT lambs vs FPT vehicle): significantly lower | mRNA expression and protein level for VEGF-A, VEGFR2, and SP-B in lung ([1]; late-stage study, 90d, FPT AVR-48 vs FPT vehicle): no significant difference | IL-6 protein in lung tissue [1, 4]: appeared lower (not significant) | IL-10 protein concentration in lung tissue [1, 4]: appeared higher (not significant) | TNF-α protein in lung tissue [1, 4]: appeared lower (not significant) | IL-1β profile ([2]; CBMC pre-treated with compound 100 μM for 48 h followed by LPS 50 ng/mL): inhibited IL-1β profile | TNF-α in LPS-tolerant CBMCs ([2]; low dose LPS 48 h then second (high dose) LPS, with addition of compound): increased production of TNF-α | TNF-α level ([2]; pretreatment 48 h followed by LPS 24 h, vs control): significant higher level | macrophage lineage [3]: preference for intermediate macrophage lineage
